Laboratory results taken from a melting point compilation (Tetko et al.; mined from patent text by program, amines drawn as free bases though some values may be those of a salt).

| SMILES | melting point [°C] |
| --- | --- |
| Cc1nc(-n2ccc3cc(O)ccc3c2=O)sc1C(=O)NCc1ccccc1 | 225 to 228 |
| CCc1nc2c(cnn2CC)c(NC2CCOCC2)c1CNC(=O)c1cc(C)cc(C(=O)NCc2ccc(C)c(Br)c2)c1 | 117 to 119 |
| CCOc1cccc(C(C)CC(=O)Nc2sc3c(c2C#N)CCNC3)c1 (racemic) | 178 to 180 |
| CCON=CNC(=O)c1ccc(C2=NOC(c3cc(Cl)cc(Cl)c3)(C(F)(F)F)C2)cc1C (stereo unspecified) | 143 to 146 |
| Cc1ccc(C(=O)c2cccc(S(=O)(=O)O)n2)cc1 | > 300 |
| O=[N+]([O-])C=C1CN=C(c2ccccc2Cl)c2cc(Cl)ccc2N1 | 182 to 185 |
| COc1ccc2c(c1)C(CCNC(C)=O)=C(Cc1ccccc1)C2 | 133 to 135 |
| O=C(Nc1ccc(Cl)cc1)Oc1ccc2c(c1)NCCC2 | 118 |
| CC[C@H](C)C(OCc1ccccc1F)[C@H]1[C@H]([N+](=O)[O-])[C@H](c2ccsc2)N[C@@H]1C(=O)NCCC(=O)O (stereo partly specified) | 113 to 114 |
| CC(C)P1(=O)c2ccccc2CN1C (stereo unspecified) | 72 to 74 |
| Cc1ccc(NC(=O)N(C)Cc2cccc3c2C(=O)N(C2CCC(=O)NC2=O)C3=O)cc1Cl (stereo unspecified) | 193 to 195 |
| COC(=O)CCc1ccc(N2CCN(c3ccc(CCN)cc3)C2=O)cc1 | > 200 |
| COC(=O)[C@H](Cc1ccccc1)NC(=O)[C@H](Cc1ccccc1)NC(=O)c1cnccn1 | 111 to 113 |
| CCCCCNC(=O)c1cn2nc(N3CCN(C(=O)c4ccccc4C(F)(F)F)CC3)ccc2n1 | 179 to 180 |
| CC(C)COc1ccc(Br)cc1N(Cc1ccc(N(C)C)cc1)C(=O)C1CCCc2ccccc21 (stereo unspecified) | 176 to 178 |
| C[C@H]1CC[C@H]2C(C)(C)C(=NN3CCOCC3)CC[C@]23Oc2c(c(O)cc4c2CNC4=O)C[C@]13C | 202 to 205 |
| Cc1c(Cl)cc(C(=O)C=[N+]=[N-])cc1S(N)(=O)=O | 174 to 176 |
| N#Cc1cnc2sc(-c3ccccc3)cc2c1Nc1cccc2cc[nH]c12 | > 245 |
| c1ccc2c(c1)c1c(N3CCCC3)nc(N3CCCC3)nc1n2CCn1ccnc1 | 181 to 183 |
| Cc1cnc2c(c1)COP(=S)(OC(C)C)O2 (stereo unspecified) | 96 to 98 |
| COc1ccc(Cc2nc3c(O)cccc3o2)cc1OC1CCCC1 | 172 to 181 |
| O=C(O)c1cccc(OC(F)(F)C(F)Cl)c1 (stereo unspecified) | 79 to 85 |
| Nc1nc(Cl)cc(NCC2(CO)CC(O)C2)n1 (stereo unspecified) | 136 to 139 |
| COc1ccc(OCC2SCCN2C(=O)CCl)cc1 (stereo unspecified) | 51 to 53 |
| CCOC(=O)c1c(CN2CCCCC2)nc2cc(OC)c(OC)cc2c1-c1ccc(OC)cc1 | 129 to 130 |
| COC(=O)c1ccc(CNC(=O)C[C@H]2O[C@H](c3cccc(OC)c3OC)c3cc(Cl)ccc3N(CC(C)(C)CO)C2=O)cc1 | 110 to 112 |

| SMILES | melting point [°C] |
| --- | --- |
| O=Cc1ccc(-c2ccc(-c3ccc(C=O)o3)nc2)cc1 | 217 to 219 |
| Fc1ccc(-c2nn3c(-c4ccccc4)cc(-c4ccccc4)nc3c2-c2ccncc2)cc1 | 243 to 245 |
| O=C1NC(=O)c2ccccc2/C1=C/Nc1ccc(N2CCOCC2)cc1 | 257 to 258 |
| COc1ccc(Oc2ccc(C(=O)N(C3CCCC3)C3CCCC3)cc2)cc1OC | 180 |
| CS(=O)(=O)c1ccc(C2=C(c3ccccc3)C(=O)c3ccccc32)cc1 | 167 to 168 |
| CCCSc1c2ccccc2nc2c1c(C)nn2-c1ccccn1 | 91 to 93 |
| COc1nc2ccc(Br)cc2cc1C#N | 169 to 172 |
| CC1SC(=O)NN=C1c1ccc2c(c1)C(=Cc1ccccn1)C(=O)N2 (stereo unspecified) | 296 |
| O=Nc1ccc(NC2CCCCC2)cc1 | 90 to 92 |
| CC(=O)N(C)CC#CCn1ccnc1 | 113 to 115 |
| O=C(CC(=O)C1CCCCC1)C1CCCCC1 | 50 to 52 |
| OC(CNCCc1cc(Br)sc1Br)c1ccccc1 (stereo unspecified) | 94 |
| O=c1nc(NCc2ccccc2)sc2c([N+](=O)[O-])cc(C(F)(F)F)cc12 | 192 to 194 |
| CC1(C)CC(N2CCCCCC2=O)CC(C)(C)N1O | 212 to 215 |
| COc1ccc(Cn2c(=O)c3c(c4ccccc42)OC(C)(C)[C@@H](Br)[C@@H]3O)cc1 (relative stereo) | 146 to 147 |
| COc1cc(OCc2nccs2)ccc1/C=C/c1cc(/C=C/c2ccc3cc[nH]c3c2)n[nH]1 | 229 to 237 |
| CNc1n[nH]c(=O)n1N=C(C)CC(C)C | 136 |
| Cc1oc(-c2ccccc2)nc1COc1ccc(CCCO)cc1 | 70 to 71 |
| CCOCc1nc2c(Cl)nc3ccccc3c2n1Cc1cc(-c2ccc(F)cc2)no1 | 189 to 190 |
| COc1ccc(N2C(=O)NC(=O)C23CCCCC3)cc1 | 203 to 205 |
| CN1CC(CCCl)Oc2cc3ccccc3cc2C1=O (stereo unspecified) | 101 to 102 |
| N#Cc1cccc(CCC(=O)O)c1 | 95 |
| CC(C)(N)CNc1ccnc2cc(Cl)ccc12 | 169 to 171 |
| COC(=O)COc1ccc2ccc(O)c(C(C)=O)c2c1 | 113 to 114 |
| CCCc1nn(-c2ccc(C(F)(F)F)cn2)cc1CCCOc1cccc(C(C)(C)C(=O)O)c1 | 82 to 83 |
